Test results reported in patent US20260022142A1, “MACROCYCLIC IMMUNOMODULATORS” (Bristol-Myers Squibb Company, priority 2022, published 2026).
Numbered stars: 1 amine (or outer) side, 2 acyl side, 3 side chain; on linkers, the order of the positions; unused ones are H or OH. Bridge positions count the residues as written; N and C are the ends. Square brackets hold non-standard residues; d marks the D form. Peptide text beside a SMILES is read from it. * marks the point of attachment. Phe(3,4-(OMe)2) = COc1ccc(C[C@H](N)C(=O)O)cc1OC; Phe(3-CF3) = N[C@@H](Cc1cccc(C(F)(F)F)c1)C(=O)O; Ala(morpholin-4-yl) = N[C@@H](CN1CCOCC1)C(=O)O; Phe(4-COOH) = N[C@@H](Cc1ccc(C(=O)O)cc1)C(=O)O; Bip = N[C@@H](Cc1ccc(-c2ccccc2)cc1)C(=O)O; Phe(3-CN) = N#Cc1cccc(C[C@H](N)C(=O)O)c1; Phe(3-OMe) = COc1cccc(C[C@H](N)C(=O)O)c1; Phe(3-Me) = Cc1cccc(C[C@H](N)C(=O)O)c1; γGlu = O=C(O)[C@H](CCC(=O)[*:2])N[*:1]; NH(CH2)12COOH = O=C(O)CCCCCCCCCCCCN*; Val(3-OH) = CC(C)(O)[C@H](N)C(=O)O; Aha = [N-]=[N+]=NCC[C@H](N)C(=O)O; 4Pal = N[C@@H](Cc1ccncc1)C(=O)O; Cha = N[C@@H](CC1CCCCC1)C(=O)O; 3Abz = Nc1cccc(C(=O)O)c1; Carboxymethyl = O=C(O)C*; Orn = NCCC[C@H](N)C(=O)O; Pra = C#CC[C@H](N)C(=O)O; Aun = NCCCCCCCCCCC(=O)O; Dab = NCC[C@H](N)C(=O)O; Dap = NC[C@H](N)C(=O)O; AEEA = NCCOCCOCC(=O)O

Biological target: T1, PD-1/PD-L1 interaction (PE-labeled human PD-L1-Ig binding to Jurkat cell line over-expressing human PD-1) (Homo sapiens, UniProt Q15116)
T1 construct: expressed in transfected cells; host or cells: Jurkat
T1 sequence (Q15116 25-288): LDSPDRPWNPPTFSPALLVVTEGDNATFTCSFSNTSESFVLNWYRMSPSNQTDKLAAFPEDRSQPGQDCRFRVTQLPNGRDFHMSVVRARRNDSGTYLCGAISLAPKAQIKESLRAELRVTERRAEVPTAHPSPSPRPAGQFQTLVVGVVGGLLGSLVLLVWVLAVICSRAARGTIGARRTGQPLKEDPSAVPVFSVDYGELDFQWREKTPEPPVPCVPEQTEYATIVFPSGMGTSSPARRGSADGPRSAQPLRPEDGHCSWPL
Assay: Jurkat-PD-1 Cell Binding High-Content Screening Assay (CBA)
Format: cell-based
Details: Jurkat cell line over-expressing human PD-1; PE-labeled PD-L1-Ig 20 nM final; read-out: Jurkat hPD1-PDL1 IC50
Summary of the method: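 Binding of fluorescent PD-L1-Ig (phycoerythrin on Ig tag, 20 nM final, 1 h) measured by high-content imaging of fixed, Hoechst-counterstained Jurkat-hPD-1 cells. Compound added 2 h at 37° C beforehand, in DMEM with 10% fetal calf serum.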

IC50 [nM] | Compound
9 | C#CC[C@H](NC(=O)[C@H](CCN)NC(=O)[C@@H]1CSCC(=O)N[C@@H](CN2CCOCC2)C(=O)N[C@@H](Cc2ccc(OCC(=O)O)cc2)C(=O)N[C@@H](CC(=O)O)C(=O)N[C@@H](Cc2cccc(C)c2)C(=O)N[C@@H](Cc2ccc(OCC(=O)O)cc2)C(=O)N[C@@H](Cc2ccc(-c3ccccc3)cc2)C(=O)N[C@@H](Cc2ccc(OCC(=O)O)cc2)C(=O)N[C@@H](CCCN)C(=O)N[C@H](CC(C)C)C(=O)N[C@@H](CCN)C(=O)N[C@@H](CC2CCCCC2)C(=O)N[C@@H](C(C)(C)O)C(=O)N[C@@H](CO)C(=O)N1)C(=O)NCCCCCCCCCCC(=O)O [Compound 1279] ({CH2CO}-[Ala(morpholin-4-yl)]Y(Carboxymethyl)D[Phe(3-Me)]Y(Carboxymethyl)[Bip]Y(Carboxymethyl)[Orn][dL][Dab][Cha][Val(3-OH)]SC[Dab][Pra][Aun]-OH; thioether N-14)
243 | COc1ccc(C[C@@H]2NC(=O)[C@H](Cc3cccc(C)c3)NC(=O)[C@H](CC(=O)O)NC(=O)[C@H](Cc3ccc(OCC(=O)O)cc3)NC(=O)[C@H](Cc3ccncc3)NC(=O)CSC[C@@H](C(=O)N[C@@H](CCN)C(=O)N[C@@H](CCN=[N+]=[N-])C(=O)NCCCCCCCCCCC(=O)O)NC(=O)[C@H](CO)NC(=O)[C@H](C(C)(C)O)NC(=O)[C@H](CC3CCCCC3)NC(=O)[C@H](CCN)NC(=O)[C@@H](CC(C)C)NC(=O)[C@H](CCCN)NC(=O)[C@H](Cc3ccc(OCC(=O)O)cc3)NC(=O)[C@H](Cc3ccc(-c4ccccc4)cc3)NC2=O)cc1 [Compound 1280] ({CH2CO}-[4Pal]Y(Carboxymethyl)D[Phe(3-Me)]Y(Me)[Bip]Y(Carboxymethyl)[Orn][dL][Dab][Cha][Val(3-OH)]SC[Dab][Aha][Aun]-OH; thioether N-14)
4.7 | Cc1cccc(C[C@@H]2NC(=O)[C@H](CC(=O)O)NC(=O)[C@H](Cc3ccc(OCC(=O)O)cc3)NC(=O)[C@H](CN3CCOCC3)NC(=O)CSC[C@@H](C(=O)N[C@@H](CCN)C(=O)N[C@@H](CCN=[N+]=[N-])C(=O)NCCCCCCCCCCC(=O)O)NC(=O)[C@H](CO)NC(=O)[C@H](C(C)(C)O)NC(=O)[C@H](CC3CCCCC3)NC(=O)[C@H](CCN)NC(=O)[C@@H](CC(C)C)NC(=O)[C@H](CCCN)NC(=O)[C@H](Cc3ccc(OCC(=O)O)cc3)NC(=O)[C@H](Cc3ccc(-c4ccccc4)cc3)NC(=O)[C@H](Cc3ccc(OCC(=O)O)cc3)NC2=O)c1 [Compound 1281] ({CH2CO}-[Ala(morpholin-4-yl)]Y(Carboxymethyl)D[Phe(3-Me)]Y(Carboxymethyl)[Bip]Y(Carboxymethyl)[Orn][dL][Dab][Cha][Val(3-OH)]SC[Dab][Aha][Aun]-OH; thioether N-14)
631 | CC(C)C[C@@H]1NC(=O)[C@H](Cc2c[nH]c3ccccc23)NC(=O)[C@H](CC(=O)O)NC(=O)[C@H](Cc2ccncc2)NC(=O)[C@H](Cc2ccc(OCC(=O)O)cc2)NC(=O)CSC[C@@H](C(=O)Nc2cccc(C(=O)NCCCCCCCCCCC(=O)O)c2)NC(=O)[C@H](CN)NC(=O)[C@H](C(C)C)NC(=O)[C@H](CC2CCCCC2)NC(=O)[C@H](CCN)NC(=O)[C@@H](CC(C)C)NC(=O)[C@H](CCCN)NC(=O)[C@H](C(C)C)NC(=O)[C@H](Cc2ccc(-c3ccccc3)cc2)NC1=O [Compound 1282] ({CH2CO}-Y(Carboxymethyl)[4Pal]DWL[Bip]V[Orn][dL][Dab][Cha]V[Dap]C[3Abz][Aun]-OH; thioether N-14)
731 | COc1ccc(C[C@@H]2NC(=O)[C@H](CC(=O)O)NC(=O)[C@H](Cc3ccc(OCC(=O)O)cc3)NC(=O)[C@H](CN)NC(=O)CSC[C@@H](C(=O)N[C@@H](CCN)C(=O)NCCOCCOCC(=O)NCCCCCCCCCCC(=O)O)NC(=O)[C@H](CCCN)NC(=O)[C@H](C(C)C)NC(=O)[C@H](CC3CCCCC3)NC(=O)[C@H](CCN)NC(=O)[C@@H](CC(C)C)NC(=O)[C@H](CCCN)NC(=O)[C@H](Cc3ccc(O)cc3)NC(=O)[C@H](Cc3ccc(-c4ccccc4)cc3)NC(=O)[C@H](C(C)C)NC2=O)cc1OC [Compound 1283] ({CH2CO}-[Dap]Y(Carboxymethyl)D[Phe(3,4-(OMe)2)]V[Bip]Y[Orn][dL][Dab][Cha]V[Orn]C[Dab][AEEA][Aun]-OH; thioether N-14)
6.4 | Cc1cccc(C[C@@H]2NC(=O)[C@H](CC(=O)O)NC(=O)[C@H](Cc3ccc(OCC(=O)O)cc3)NC(=O)[C@H](CCN)NC(=O)CSC[C@@H](C(=O)N[C@@H](CCN)C(=O)NCCOCCOCC(=O)N[C@@H](CC(=O)O)C(=O)NCCOCCOCC(=O)N[C@@H](CCC(=O)NCC(=O)NCCCCCCCCCCCCC(=O)O)C(=O)O)NC(=O)[C@H](Cc3cnc[nH]3)NC(=O)[C@H](C(C)(C)O)NC(=O)[C@H](CC3CCCCC3)NC(=O)[C@H](CCN)NC(=O)[C@@H](CC(C)C)NC(=O)[C@H](CCCN)NC(=O)[C@H](Cc3ccc(C(=O)O)cc3)NC(=O)[C@H](Cc3ccc(-c4ccccc4)cc3)NC(=O)[C@H](Cc3ccc(C(=O)O)cc3)NC2=O)c1 [Compound 1285] ({CH2CO}-[Dab]Y(Carboxymethyl)D[Phe(3-Me)][Phe(4-COOH)][Bip][Phe(4-COOH)][Orn][dL][Dab][Cha][Val(3-OH)]HC[Dab][AEEA]D[AEEA][γGlu]G-{NH(CH2)12COOH}; thioether N-14)
5.6 | C#CC[C@H](NC(=O)[C@H](CCN)NC(=O)[C@@H]1CSCC(=O)N[C@@H](CN2CCOCC2)C(=O)N[C@@H](Cc2ccc(OCC(=O)O)cc2)C(=O)N[C@@H](CC(=O)O)C(=O)N[C@@H](Cc2cccc(C)c2)C(=O)N[C@@H](Cc2ccc(C(=O)O)cc2)C(=O)N[C@@H](Cc2ccc(-c3ccccc3)cc2)C(=O)N[C@@H](Cc2ccc(C(=O)O)cc2)C(=O)N[C@@H](CCCN)C(=O)N[C@H](CC(C)C)C(=O)N[C@@H](CCN)C(=O)N[C@@H](CC2CCCCC2)C(=O)N[C@@H](C(C)(C)O)C(=O)N[C@@H](CO)C(=O)N1)C(=O)NCCCCCCCCCCC(=O)O [Compound 1286] ({CH2CO}-[Ala(morpholin-4-yl)]Y(Carboxymethyl)D[Phe(3-Me)][Phe(4-COOH)][Bip][Phe(4-COOH)][Orn][dL][Dab][Cha][Val(3-OH)]SC[Dab][Pra][Aun]-OH; thioether N-14)
8.2 | CC(C)C[C@H]1NC(=O)[C@H](CCCN)NC(=O)[C@H](Cc2ccc(O)cc2)NC(=O)[C@H](Cc2ccc(-c3ccccc3)cc2)NC(=O)[C@H](Cc2ccc(OCC(=O)O)cc2)NC(=O)[C@H](Cc2cccc(C(F)(F)F)c2)NC(=O)[C@H](CC(=O)O)NC(=O)[C@H](Cc2ccc(OCC(=O)O)cc2)NC(=O)[C@H](CN)NC(=O)CSC[C@@H](C(=O)N[C@@H](CCN)C(=O)NCCOCCOCC(=O)NCCCCCCCCCCC(=O)O)NC(=O)[C@H](CCCN)NC(=O)[C@H](C(C)C)NC(=O)[C@H](CC2CCCCC2)NC(=O)[C@H](CCN)NC1=O [Compound 1287] ({CH2CO}-[Dap]Y(Carboxymethyl)D[Phe(3-CF3)]Y(Carboxymethyl)[Bip]Y[Orn][dL][Dab][Cha]V[Orn]C[Dab][AEEA][Aun]-OH; thioether N-14)
10.3 | CC(C)C[C@H]1NC(=O)[C@H](CCCN)NC(=O)[C@H](Cc2ccc(O)cc2)NC(=O)[C@H](Cc2ccc(-c3ccccc3)cc2)NC(=O)[C@H](C(C)C)NC(=O)[C@H](Cc2cccc(C(F)(F)F)c2)NC(=O)[C@H](CC(=O)O)NC(=O)[C@H](Cc2ccc(OCC(=O)O)cc2)NC(=O)[C@H](CN)NC(=O)CSC[C@@H](C(=O)N[C@@H](CCN)C(=O)NCCOCCOCC(=O)NCCCCCCCCCCC(=O)O)NC(=O)[C@H](CCCN)NC(=O)[C@H](C(C)C)NC(=O)[C@H](CC2CCCCC2)NC(=O)[C@H](CCN)NC1=O [Compound 1288] ({CH2CO}-[Dap]Y(Carboxymethyl)D[Phe(3-CF3)]V[Bip]Y[Orn][dL][Dab][Cha]V[Orn]C[Dab][AEEA][Aun]-OH; thioether N-14)
10.9 | COc1cccc(C[C@@H]2NC(=O)[C@H](CC(=O)O)NC(=O)[C@H](Cc3ccc(OCC(=O)O)cc3)NC(=O)[C@H](CN)NC(=O)CSC[C@@H](C(=O)N[C@@H](CCN)C(=O)NCCOCCOCC(=O)NCCCCCCCCCCC(=O)O)NC(=O)[C@H](CCCN)NC(=O)[C@H](C(C)C)NC(=O)[C@H](CC3CCCCC3)NC(=O)[C@H](CCN)NC(=O)[C@@H](CC(C)C)NC(=O)[C@H](CCCN)NC(=O)[C@H](Cc3ccc(O)cc3)NC(=O)[C@H](Cc3ccc(-c4ccccc4)cc3)NC(=O)[C@H](C(C)C)NC2=O)c1 [Compound 1289] ({CH2CO}-[Dap]Y(Carboxymethyl)D[Phe(3-OMe)]V[Bip]Y[Orn][dL][Dab][Cha]V[Orn]C[Dab][AEEA][Aun]-OH; thioether N-14)
12.5 | CC(C)C[C@H]1NC(=O)[C@H](CCCN)NC(=O)[C@H](Cc2ccc(O)cc2)NC(=O)[C@H](Cc2ccc(-c3ccccc3)cc2)NC(=O)[C@H](C(C)C)NC(=O)[C@H](Cc2c[nH]c3ccccc23)NC(=O)[C@H](CC(=O)O)NC(=O)[C@H](Cc2ccc(OCC(=O)O)cc2)NC(=O)[C@H](CN)NC(=O)CSC[C@@H](C(=O)N[C@@H](CCN)C(=O)NCCOCCOCC(=O)NCCCCCCCCCCC(=O)O)NC(=O)[C@H](CCCN)NC(=O)[C@H](C(C)C)NC(=O)[C@H](CC2CCCCC2)NC(=O)[C@H](CCN)NC1=O [Compound 1290] ({CH2CO}-[Dap]Y(Carboxymethyl)DWV[Bip]Y[Orn][dL][Dab][Cha]V[Orn]C[Dab][AEEA][Aun]-OH; thioether N-14)
14.7 | CC(C)C[C@H]1NC(=O)[C@H](CCCN)NC(=O)[C@H](Cc2ccc(O)cc2)NC(=O)[C@H](Cc2ccc(-c3ccccc3)cc2)NC(=O)[C@H](C(C)C)NC(=O)[C@H](Cc2cccc(C#N)c2)NC(=O)[C@H](CC(=O)O)NC(=O)[C@H](Cc2ccc(OCC(=O)O)cc2)NC(=O)[C@H](CN)NC(=O)CSC[C@@H](C(=O)N[C@@H](CCN)C(=O)NCCOCCOCC(=O)NCCCCCCCCCCC(=O)O)NC(=O)[C@H](CCCN)NC(=O)[C@H](C(C)C)NC(=O)[C@H](CC2CCCCC2)NC(=O)[C@H](CCN)NC1=O [Compound 1291] ({CH2CO}-[Dap]Y(Carboxymethyl)D[Phe(3-CN)]V[Bip]Y[Orn][dL][Dab][Cha]V[Orn]C[Dab][AEEA][Aun]-OH; thioether N-14)
